Data as given in US9708336B2, “Metallo-beta-lactamase inhibitors” (priority 2014, dated 2017).
Read-outs that look alike come from different tables or passages of the source.

Tests used:
NDM-1 = NDM-1 (Klebsiella pneumoniae, UniProt C7C422); experiment: biochemical; format: biochemical; conditions: read-out: NDM-1 IC50
Protocol: Enzyme Activity: Determination of IC50
The Class B enzyme activities were measured in the presence of the test inhibitor in a fluorescence assay against a commercially available substrate consisting of a cephalosporin core linking 7-hydroxycoumarin to fluorescein (CCF2-FA). The enzyme (NDM-1, IMP-1 or VIM-1) and the substrate were diluted in 100 mM KH2PO4 buffer (pH 7) containing 0.005% Tween-20 and 10 μM ZnSO4. […] The test inhibitor was dissolved in dimethylsulfoxide and diluted 1:50 in the assay, resulting in a final concentration range of 20 uM to 0.00063 uM. In a 384-well microplate, the test inhibitor was incubated with the metallo-β-lactamase enzyme and the substrate for 2 hours at 25° C. Fluorescence at 460 nm following excitation at 405 nm was measured. The IC50 value was determined from semi-logarithmic plots of enzyme inhibition versus inhibitor concentration, with a curve generated using a 4-parameter fit.

VIM-1 = VIM-1 (Pseudomonas aeruginosa (strain ATCC 15692 / DSM 22644 / CIP 104116 / JCM 14847 / LMG 12228 / 1C / PRS 101 / PAO1), UniProt A0A0F7KYQ8); experiment: Enzyme activity: determination of IC50, fluorescence assay with CCF2-FA substrate (VIM-1); format: biochemical
[1] = tested on: Escherichia coli expressing NDM-1 (CLB30005); experiment: Antibiotic potentiation activity: synergistic concentration (MITC95) with imipenem, OD600 growth; format: cell-based; conditions: for Escherichia coli MITC95: Escherichia coli expressing NDM-1 (CLB30005), 95% growth inhibition; for Escherichia coli expressing NDM-1 (CLB 30005) MITC95: concentration giving 95% inhibition of bacterial growth
How it was run: (§1)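 In 1.1× CAMHB, clinical isolates from overnight plates were challenged with test compound alongside imipenem at an assay concentration of 4 μg/ml, sometimes 1 μg/ml. Plates sat covered at 35 °C for 22–24 h prior to spectrophotometric reading.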

[2] = tested on: Klebsiella pneumoniae expressing VIM-1 (IHMA599644); experiment: as above; format: cell-based; conditions: for Klebsiella pneumoniae MITC95: Klebsiella pneumoniae expressing VIM-1 (IHMA599644), 95% growth inhibition; for Klebsiella pneumoniae expressing VIM-1 (IHMA 599644) MITC95: concentration giving 95% inhibition of bacterial growth
How it was run: as §1

[3] = tested on: Serratia marcescens expressing IMP-1 (CL5741); experiment: as above; format: cell-based; conditions: for Serratia marcescens MITC95: Serratia marcescens expressing IMP-1 (CL5741), 95% growth inhibition; for Serratia marcescens expressing IMP-1 (CL5741) MITC95: concentration giving 95% inhibition of bacterial growth
How it was run: as §1

IMP-1 = IMP-1 (Serratia marcescens, UniProt P52699); experiment: biochemical; format: biochemical
[4] = NDM-1 enzyme, CCF2-FA fluorescence assay
[5] = VIM-1 IC50, VIM-1 enzyme, CCF2-FA fluorescence assay
[6] = IMP-1 enzyme, CCF2-FA fluorescence assay, read-out: IMP-1 IC50
[7] = fluorescence assay with CCF2-FA substrate
[8] = fluorescence assay with CCF2-FA substrate, read-out: VIM-1 IC50
[9] = fluorescence assay with CCF2-FA substrate, read-out: IMP-1 IC50

NDM-1, sequence (C7C422 whole entry, looked up, species assumed): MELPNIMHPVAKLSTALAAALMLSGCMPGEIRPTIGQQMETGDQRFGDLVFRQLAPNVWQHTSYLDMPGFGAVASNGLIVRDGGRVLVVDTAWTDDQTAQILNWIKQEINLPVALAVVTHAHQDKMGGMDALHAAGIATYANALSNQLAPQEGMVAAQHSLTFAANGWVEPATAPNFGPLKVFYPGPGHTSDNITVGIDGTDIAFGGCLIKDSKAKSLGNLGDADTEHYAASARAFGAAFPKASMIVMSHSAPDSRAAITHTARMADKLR
IMP-1, sequence (P52699 whole entry, looked up): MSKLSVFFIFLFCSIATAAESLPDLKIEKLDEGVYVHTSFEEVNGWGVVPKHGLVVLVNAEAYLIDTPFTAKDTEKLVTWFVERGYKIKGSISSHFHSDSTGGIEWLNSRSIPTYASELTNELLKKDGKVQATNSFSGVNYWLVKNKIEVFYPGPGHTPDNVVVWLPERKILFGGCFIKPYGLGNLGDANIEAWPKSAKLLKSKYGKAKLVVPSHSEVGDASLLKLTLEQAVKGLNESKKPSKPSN

Compound | IC50 (NDM-1; [4]) [µM] | IC50 (VIM-1; [5]) [µM] | Escherichia coli MITC95 [1] [µM] | Klebsiella pneumoniae MITC95 [2] [µM] | Serratia marcescens MITC95 [3] [µM] | IC50 (IMP-1; [6]) [µM] | IC50 (NDM-1; [7]) [µM] | IC50 (VIM-1; [8]) [µM] | Escherichia coli expressing NDM-1 (CLB 30005) MITC95 [1] [µM] | Klebsiella pneumoniae expressing VIM-1 (IHMA 599644) MITC95 [2] [µM] | Serratia marcescens expressing IMP-1 (CL5741) MITC95 [3] [µM] | IC50 (IMP-1; [9]) [µM] | IC50 (VIM-1; VIM-1 enzyme, CCF2-FA fluorescence assay, read-out: VIM-1 IC50) [µM] | IC50 (IMP-1) [µM]
NS(=O)(=O)c1cccc(-c2cnc(N3CCNCC3)nc2)c1-c1nn[nH]n1 [Example 320, 3-(2-(Piperazin-1-yl)pyrimidin-5-yl)-2-(2H-tetrazol-5-yl)benzenesulfonamide] | 0.0144 | 0.0359 | 0.6836 | 6.25 | 9.375 | 0.294 | – | – | – | – | – | – | – | –
NS(=O)(=O)c1nccc(-c2ccc(CO)nc2)c1-c1nnn[nH]1 [Example 195, 6-(hydroxymethyl)-3′-(1H-tetrazol-5-yl)-[3,4′-bipyridine]-2′-sulfonamide] | – | – | – | – | – | – | 0.0785 | 0.291 | 0.3906 | 12.5 | 50 | 2.63 | – | –
NS(=O)(=O)c1cccc(C#CCC2CNCCO2)c1-c1nn[nH]n1 (stereo not drawn) [Example 145, 3-(3-morpholin-2-ylprop-1-yn-1-yl)-2-(2H-tetrazol-5-yl)benzenesulfonamide] | – | – | – | – | – | – | 0.191 | 6.41 | 0.7813 | >200 | 75 | 2.41 | – | –
NS(=O)(=O)c1nccc(-c2ccc(C(=O)NC3CC3)cc2)c1-c1nnn[nH]1 [Example 185, N-Cyclopropyl-4-(2-sulfamoyl-3-(1H-tetrazol-5-yl)pyridin-4-yl)benzamide] | – | – | – | – | – | – | 0.135 | 2.02 | 2.344 | >200 | 75 | 1.48 | – | –
CC(C)n1nccc1-c1cccc(S(N)(=O)=O)c1-c1nn[nH]n1 [Example 106, 3-[1-(1-methylethyl)-1H-pyrazol-5-yl]-2-(2H-tetrazol-5-yl)benzenesulfonamide] | – | – | – | – | – | – | 0.00963 | 0.962 | 3.906 | 200 | 62.5 | 1.8 | – | –
NS(=O)(=O)c1cccc(-c2ccccc2O)c1-c1nn[nH]n1 [Example 326, 2′-hydroxy-2-(2H-tetrazol-5-yl)-[1,1′-biphenyl]-3-sulfonamide] | 0.00365 | – | 3.32 | 37.5 | 18.75 | 0.37 | – | – | – | – | – | – | 0.136 | –
NS(=O)(=O)c1cccc(-c2ccc(C(O)CO)cc2)c1-c1nn[nH]n1 (stereo not drawn) [Example 321, 4′-(1,2-dihydroxyethyl)-2-(2H-tetrazol-5-yl)-[1,1′-biphenyl]-3-sulfonamide] | 0.0192 | 0.199 | 1.563 | 50 | 6.25 | 0.0935 | – | – | – | – | – | – | – | –
NS(=O)(=O)c1cccc(-c2ccc(C3(O)CNC3)cc2)c1-c1nn[nH]n1 [Example 315, 4′-(3-hydroxyazetidin-3-yl)-2-(2H-tetrazol-5-yl)-[1,1′-biphenyl]-3-sulfonamide] | 0.0116 | 0.0334 | 0.3906 | 3.125 | 4.688 | 0.51 | – | – | – | – | – | – | – | –
C[C@H]1NC(=O)O[C@H]1c1ccc(-c2ccnc(S(N)(=O)=O)c2-c2nnn[nH]2)cc1 (racemic) [Example 191, (±)-4-(4-(cis-4-Methyl-2-oxooxazolidin-5-yl)phenyl)-3-(1H-tetrazol-5-yl)pyridine-2-sulfonamide] | – | – | – | – | – | – | 0.00775 | 0.0459 | 9.375 | 75 | 15.63 | – | – | 0.076
CCN(CC)C(=O)c1ccc(-c2cccc(S(N)(=O)=O)c2-c2nn[nH]n2)cc1 [Example 9, N,N-diethyl-3′-sulfamoyl-2′-(2H-tetrazol-5-yl)biphenyl-4-carboxamide] | – | – | – | – | – | – | 0.00148 | 0.277 | 3.125 | >200 | 12.5 | 0.0172 | – | –
NS(=O)(=O)c1nccc(-c2ccc3cccnc3c2)c1-c1nn[nH]n1 [Example 213, 4-(quinolin-7-yl)-3-(2H-tetrazol-5-yl)pyridine-2-sulfonamide] | – | – | – | – | – | – | 0.051 | 0.0624 | 1.042 | 100 | 37.5 | 0.564 | – | –
